Data on eleven compounds can be found in patent US5608095A, “Alkyl-4-silyl-phenols and esters thereof as antiatherosclerotic agents” (Hoechst Marion Roussel, Inc., priority 1996, dated 1997).

Data set [1] relates to VCAM-1. Briefly: Cell surface ELISA for VCAM-1 in human umbilical vein endothelial cells (HUVEC), TNF-alpha induced. Type of data set: cell-based. Conditions: 50 μM, average of three runs. As for the experimental part:
(§1) Cell Surface ELISA for VCAM-1/ICAM-1
(§2) Proliferating human umbilical vein endothelial cells (HUVEC) or human aortic smooth muscle cells (HASMC) from Clonetics (San Diego, Calif.) were plated onto 96-well plates in 100 μL medium per well at 20,000 cells per cm^2. The cultures were maintained in growth medium (EGM or SMGM2, Clonetics, San Diego, Calif.) for two days prior to addition of cytokines or drugs. Cytokines plus or minus compounds were added for 20 to 24 hours prior to analysis for adhesion molecule levels. Tumor necrosis factor (Genzyme, Cambridge, Mass.) was added to cultures at 500-1000 units/mL. Interleukin-4 (GIBCO-BRL, Gaithersburg, Md.) was added to cultures at 100-200 pg/mL. (Additions were made by transferring 100 [μL of cytokines plus compounds serially diluted on a separate 96-well plate into the plates containing cells. The medium on the cultures was not exchanged prior to addition of effectors). The culture medium was removed, and the monolayers were washed twice with Hanks buffered saline solution (HBSS) at room temperature. The primary antibody (anti-human VCAM-1 from Upstate Biotechnology, Inc., Lake Placid, N.Y. or anti-human ICAM-1 from Immunotech, Inc., Westbrook, Me.) was added to each well (1 μg/mL in HBSS plus 5% newborn calf serum, GIBCO-BRL, Gaithersburg, Md.) and incubated at 37° C. for 1 hr. The wells were washed twice with HBSS, then 100 μL of a 1/1000 dilution of goat anti-mouse IgG conjugated to horse radish peroxidase (BioRad, Hercules, Calif.) in HBSS plus 5% newborn calf serum was added to each well and incubated for 1 hr at 37° C. The wells were washed three times with HBSS, then 100 μL of TMB substrate (BioRad, Hercules, Calif.) was added to each well. The reaction was stopped after blue color developed by addition of 50 μL of 1N H2 SO4. Absorbance is measured at 450 nm with a plate reader. IC50 values were determined from curves of absorbance values obtained from serial dilutions of compounds (dissolved in dimethyl sulfoxide).
(§3) The IC50 value is defined as the drug concentration that inhibits the cytokine-induced adhesion molecule expression by 50%. Maximal values for adhesion molecule expression in cytokine-induced cultures was […] the basal level of adhesion molecule expression (minus cytokines) in the cultures to determine the level of induction. […] Each drug concentration was tested in quadruplicate wells. Single point tests of compounds at 50 μM were assayed as described for IC50 determinations, except that the data represent the level of inhibition without correction for basal expression. (Basal adhesion molecule expression was 10-20% of the total induced expression). Table 1 summarizes the ability of various compounds of this invention to inhibit VCAM-1 using human aortic smooth muscle cells (HASMC). In these experiments, the cells were coincubated with interleukin-4 and the compounds listed about 20 hr before assaying cell surface VCAM-1 levels. Each column represents a separate experiment.
In these experiments, the cells were coincubated with tumor necrosis factor-alpha along with the indicated compounds about 20 to 24 hr before assaying cell surface adhesion molecule expression.
(An ELISA detects its analyte on a solid surface through an enzyme-linked reagent.)

In data set [2] the test system is VCAM-1. Nature of the data set: Cell surface ELISA for VCAM-1 in human aortic smooth muscle cells (HASMC), interleukin-4 induced. The class given is cell-based. Conditions: 50 μm; for VCAM-1 (Avg.) % inh.: average of HSMC-1 to HSMC-3; for HSMC-1 % inh. of VCAM-1: experiment HSMC-1, interleukin-4, about 20 hr; for HSMC-2 % inh. of VCAM-1: experiment HSMC-2, interleukin-4, about 20 hr; for HSMC-3 % inh. of VCAM-1: experiment HSMC-3, interleukin-4, about 20 hr. As for the experimental part: as §1, §2, §3

A short description of data set [3]: HPLC quantitation of compound and metabolite concentration in rabbit serum and liver. The class given is in vivo, female New Zealand White rabbits. As to conditions: for concentration at 168 h: po. As for the experimental part: Five independent experiments were performed in the following manner. […] Female New Zealand White rabbits (Hazelton, ~2.0-2.3 kg) were fed 0.2% cholesterol enriched rabbit chow (Purina #5322) with or without 0.4% MDL compound (except, MDL 108,804 at 0.26% and MDL 103,491 repeated at 0.6%). The MDL compounds were solubilized in 100% ethanol. MDL 108,208 was not soluble in 100% ethanol, but it was soluble in diethyl ether:ethanol (3:2 by volume). The chow was sprayed with the MDL mixtures and allowed to dry overnight in a chemical fume hood. Control chow was sprayed with ethanol. Rabbits were fed 100 grams food per day for 7 days (0.6% MDL 103,491 were fed for 14 days); water was available ad libitum. On day 7, rabbits (fasted overnight) were bled (~2 mL) from marginal ear vein; 0.6% MDL 103,491 treated rabbits were tested on day 14. They were euthanized by carbon dioxide overdose. The total body and liver weights were recorded in grams. Food consumption was recorded as grams.cndot.day^-1 .cndot.rabbit^-1. Aliquots of fresh serum were used for clinical chemistries, lipoprotein cholesterol determination, thiobarbituric acid reactive substances (TBARS) and compound and metabolite concentrations in serum. Livers (~5 gram aliquots) were frozen at -20° C. for compound and metabolite concentration determination at a later time.
Serum and liver concentrations of parent compounds and the metabolites, bisphenol and diphenoquinone, were determined by reverse phase HPLC using a Waters 990 Powerline system. Livers (1 gram) were homogenized with 5.0 mL PBS, pH 7.4, using a Polytron tissue homogenizer at setting 5 for 20-30 seconds. Serum or liver homogenates were extracted as follows: 100 μL of either serum or homogenate were added to 2.0 mL diethyl ether:ethanol (3:1) while vortexing the tube. The sample tubes were capped and centrifuged for 10 min at 5° C. at 3500 rpm in a Beckman GPKR centrifuge with a GH 3.7 rotor. The supernatants were transferred to clean tubes and dried under N2. Samples were reconstituted with 200 μL of acetonitrile:hexane:0.1M ammonium acetate (90:6.5:3.5, by vol.). Then, 100 μL were injected onto a Waters Deltapak C18-300 Å column, and eluted with an 83% acetonitrile:17% water mobile phase at a flow rate of 1.5 mL/min. Absrobances at the wavelengths of 240, 254, and 420 nm were recorded. Compound concentrations were calculated from known quantities of authentic parent compounds after correction for recovery; the range of recovery from spiked samples was 40 to 100%. The lowest detectable limit for this class of compounds was ~0.5 μg/mL. Concentrations were calculated as μg/mL of serum and μg/g of liver.

Where [4] appears, read: rabbit liver, diet 0.4%, 7 days.
The mark [5] stands for this setting: rabbit serum, diet 0.4%, 7 days.
The mark [6] stands for this setting: rabbit liver, diet 0.4%, 7 days, read-out: Liver Parent = parent compound concentration.
[7] abbreviates: rabbit serum, diet 0.4%, 7 days, read-out: Serum Parent = parent compound concentration.

Read-outs that look alike come from different tables or passages of the source.

Take `CC(C)(C)c1cc(OC[Si](C)(C)c2ccccc2)cc(C(C)(C)C)c1OC(=O)CCC(=O)O` [MDL 103,076, 2,6-Di-t-butyl-4-[(dimethylphenylsilyl)methyloxy]phenol succinic acid ester]: in the data set on VCAM-1 [1], the VCAM-1 % inh. was 7.3%. Further, in the data set on VCAM-1 [2], the “VCAM-1 (Avg.) % inh.” value is given as 43.9%, the “HSMC-1 % inh. of VCAM-1” value amounted to 30.6%, the “HSMC-2 % inh. of VCAM-1” value is 55.0% and the “HSMC-3 % inh. of VCAM-1” value was 46.0%.

Take `CC(C)(C)c1cc(SC[Si](C)(C)c2ccccc2)cc(C(C)(C)C)c1OC(=O)CCC(=O)O` [MDL 103,141, 2,6-Di-t-butyl-4-[(dimethylphenylsilyl)methylthio]phenol sucinic acid ester]: the VCAM-1 % inh. in the data set on VCAM-1 [1] was found to be 1.3%. Besides, in the data set on VCAM-1 [2], the “VCAM-1 (Avg.) % inh.” value was 31.2%, the “HSMC-1 % inh. of VCAM-1” value came out at 13.7%, the “HSMC-2 % inh. of VCAM-1” value is 47.0% and the “HSMC-3 % inh. of VCAM-1” value was found to be 33.0%.

In turn, `CC(=O)Oc1c(C(C)(C)C)cc(OC[Si](C)(C)c2ccccc2)cc1C(C)(C)C` [MDL 103,377, 2,6-Di-t-butyl-4-[(dimethylphenylsilyl)methyloxy]phenol acetic acid ester] had a VCAM-1 % inh. in the data set on VCAM-1 [1] of 18.3%. In the data set with VCAM-1 [2], the “VCAM-1 (Avg.) % inh.” value is 45.5%, the “HSMC-2 % inh. of VCAM-1” value stood at 45.0% and the “HSMC-3 % inh. of VCAM-1” value is on record as 46.0%.

In the case of `CC(C)(C)c1cc(OC[Si](C)(C)c2ccccc2)ccc1O` [MDL 103,491, 2-t-Butyl-4-[(dimethylphenylsilyl)methyloxy]phenol], the “Liver Parent = parent compound concentration” value in data set [3] (setting [4]) came out at 0 µg/g. Also, the “Liver Parent = parent compound concentration” value in data set [3] (rabbit liver, diet 0.6%, 14 days) is 0 µg/g. Further, the “Serum Parent = parent compound concentration” value in data set [3] (setting [5]) was 0 µg/mL. The “Serum Parent = parent compound concentration” value in data set [3] (rabbit serum, diet 0.6%, 14 days) was determined as 0 µg/mL. For the same compound, the VCAM-1 % inh. in the data set with VCAM-1 [1] is reported as 12.0%. Also, in the data set with VCAM-1 [2], the “VCAM-1 (Avg.) % inh.” value came out at 53.0%, the “HSMC-2 % inh. of VCAM-1” value is listed as 57.0% and the “HSMC-3 % inh. of VCAM-1” value came out at 49.0%.

On to `CN(C)c1ccc([Si](C)(C)COc2cc(C(C)(C)C)c(O)c(C(C)(C)C)c2)cc1` [MDL 104,556, 2,6-Di-t-butyl-4-[(4-N,N-dimethylaminophenyldimethylsilyl)methyloxy]phenol], for which the concentration at 168 h in data set [3] (setting [6]) turned out to be 7900 ng/g. Further, the concentration at 168 h in data set [3] (setting [7]) came out at 4900 ng/mL. The same compound had a VCAM-1 % inh. with VCAM-1 [1] of 33.3%. Besides, in the data set on VCAM-1 [2], the “VCAM-1 (Avg.) % inh.” value came to 56.7%, the “HSMC-1 % inh. of VCAM-1” value came out at 54.1%, the “HSMC-2 % inh. of VCAM-1” value worked out at 58.0% and the “HSMC-3 % inh. of VCAM-1” value was 58.0%.

On to `CC(C)(C)c1cc(OC[Si](C)(c2ccccc2)c2ccccc2)cc(C(C)(C)C)c1O` [MDL 104,599, 2,6-Di-t-butyl-4-[(diphenylmethylsilyl)methloxy]phenol], for which the concentration at 168 h in data set [3] (setting [6]) turned out to be 47200 ng/g. Further, the concentration at 168 h in data set [3] (setting [7]) amounted to 14800 ng/mL. The same compound showed a VCAM-1 % inh. with VCAM-1 [1] of 12.3%. In the data set on VCAM-1 [2], the “VCAM-1 (Avg.) % inh.” value turned out to be 45.7%, the “HSMC-1 % inh. of VCAM-1” value came to 50.1%, the “HSMC-2 % inh. of VCAM-1” value turned out to be 38.0% and the “HSMC-3 % inh. of VCAM-1” value is reported as 49.0%.

With `CC(C)(C)c1cc(OC[Si](C)(C)c2ccccc2)c(C(C)(C)C)cc1O` [MDL 104,962, 2,5-Di-t-butyl-4-[(dimethylphenylsilyl)methyloxy]phenol], the concentration at 168 h came out at 3600 ng/g in data set [3] (setting [6]) and 3800 ng/mL in data set [3] (setting [7]).

`Cc1cc(OC[Si](C)(C)c2ccccc2)c(C)c(C)c1O` [MDL 105,314, 2,3,6-Trimethyl-4-[(dimethylphenylsdilyl)methloxy]phenol] showed a VCAM-1 % inh. in the data set with VCAM-1 [1] of 10.7%. Also, in the data set with VCAM-1 [2], the “VCAM-1 (Avg.) % inh.” value is 28.2%, the “HSMC-1 % inh. of VCAM-1” value is given as 8.7%, the “HSMC-2 % inh. of VCAM-1” value is given as 38.0% and the “HSMC-3 % inh. of VCAM-1” value came out at 38.0%.

Consider `CC(=O)Oc1ccc(OC[Si](C)(C)c2ccccc2)cc1C(C)(C)C` [MDL 105,443, 2-t-Butyl-4-[(dimethylphenylsilyl)methyloxy]phenol acetic acid ester], for which the “Liver Parent = parent compound concentration” value in data set [3] (setting [4]) is 0 µg/g. For the same compound, in data set [3] (setting [5]), the “Serum Parent = parent compound concentration” value was found to be 0 µg/mL. In the data set with VCAM-1 [1], this compound returned a VCAM-1 % inh. of 3.0%. In the data set on VCAM-1 [2], the “VCAM-1 (Avg.) % inh.” value came out at 25.8%, the “HSMC-1 % inh. of VCAM-1” value was 11.4%, the “HSMC-2 % inh. of VCAM-1” value was found to be 44.0% and the “HSMC-3 % inh. of VCAM-1” value is 22.0%.

Take `CC(C)(C)c1cc(OC[Si](C)(C)c2ccc(C(F)(F)F)cc2)cc(C(C)(C)C)c1O` [MDL 105,975, 2,6-Di-t-butyl-4-[(dimethyl-4-trifluoromethylphenylsilyl)methyloxy]phenol]: the concentration at 168 h in data set [3] (setting [6]) amounted to 54600 ng/g. In addition, the concentration at 168 h in data set [3] (setting [7]) was determined as 13800 ng/mL. In addition, the VCAM-1 % inh. in the data set on VCAM-1 [1] is 6.3%. Moreover, in the data set with VCAM-1 [2], the “VCAM-1 (Avg.) % inh.” value is reported as 19.8%, the “HSMC-2 % inh. of VCAM-1” value came to 20.0% and the “HSMC-3 % inh. of VCAM-1” value is recorded as 51.0%.

In the case of `COc1ccc([Si](C)(C)COc2ccc(O)c(C(C)(C)C)c2)cc1` [MDL 106,834, 2-t-Butyl-4-[(dimethyl-p-methoxylphenylsilyl)methyloxy]phenol], the figures for the concentration at 168 h in data set [3] (setting [6]) and in data set [3] (setting [7]) were 9100 ng/g and 2900 ng/mL, respectively.
